Like-named read-outs stand apart in the source and are kept apart here.
How the values were obtained:
Leishmania B = target: T1, Leishmania B (UniProt P90627); assay: Cysteine protease inhibition, progress curve method, leishmania B; format: biochemical, Leishmania spp; details: read-out: Leishmania B Ki nM; 10 uM Cbz-Phe-Arg-AMC, 100 mM Na acetate pH 5.5, 5 mM cysteine
T1 sequence (P90627 1-340): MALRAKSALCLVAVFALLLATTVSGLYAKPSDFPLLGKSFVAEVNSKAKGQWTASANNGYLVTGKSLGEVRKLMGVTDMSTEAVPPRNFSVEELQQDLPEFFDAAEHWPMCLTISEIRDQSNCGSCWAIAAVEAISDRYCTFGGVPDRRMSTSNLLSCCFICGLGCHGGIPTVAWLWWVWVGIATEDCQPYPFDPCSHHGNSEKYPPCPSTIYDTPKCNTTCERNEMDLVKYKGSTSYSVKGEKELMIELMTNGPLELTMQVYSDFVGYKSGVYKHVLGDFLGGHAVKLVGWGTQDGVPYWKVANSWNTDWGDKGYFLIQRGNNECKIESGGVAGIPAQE
Procedure: (§1) Standard assay conditions for the determination of kinetic constants used 10 uM fluorogenic peptide substrate, Cbz-Phe-Arg-AMC for the cysteine proteases from Leishmania spp and Schistosoma Mansoni, Cbz-Leu-Arg-AMC for the cysteine proteases from Plasmodium falciparum and Trypanosoma brucei rhodesiensi, and Ac-Lys-Glu-Lys-Leu-Arg-AMC (4 uM final substrate concentration) for the cysteine protease from Trypoanosoma cruzi, and were determined in 100 mM Na acetate at pH 5.5 containing 5 mM cysteine. Stock substrate solutions were prepared at concentrations of […] in DMSO with 10 uM (4 uM for Ac-Lys-Glu-Lys-Leu-Arg-AMC) final substrate concentration in the assays. The final DMSO concentration was 2% and the final volume was 100 uL. All assays were conducted at ambient temperature. Product progress curves were generated over 20 to 30 minutes following formation of AMC product.
(§2) Potential inhibitors were evaluated using the progress curve method. Assays were carried out in the presence of variable concentrations of test compound. Reactions were initiated by addition of enzyme to buffered solutions of inhibitor and substrate. Data analysis was conducted according to one of two procedures depending on the appearance of the progress curves in the presence of inhibitors. For those compounds whose progress curves were linear, apparent inhibition constants (Ki,app) were calculated according to equation 1 (Brandt et al., Biochemitsry, 1989, 28, 140):
(§3) v=VmA/[Ka(1+I/Ki,app)+A] (1)
(§4) Where v is the velocity of the reaction with maximal velocity Vm, A is the concentration of substrate with Michaelis constant of Ka, and I is the concentration of inhibitor.
(§5) [AMC]=vsst+(v0−vss)[1−exp (−kobst)]/kobs (2)
(§6) Where [AMC] is the concentration of product formed over time t, v0 is the initial reaction velocity and vss is the final steady state rate. Values for kobs were then analyzed as a linear function of inhibitor concentration to generate an apparent second order rate constant (kobs/inhibitor concentration or kobs/[I]) describing the time-dependent inhibition. A complete discussion of this kinetic treatment has been fully described (Morrison et al., Adv. Enzymol. Relat. Areas Mol. Biol., 1988, 61, 201).
(§7) Exemplary inhibition data for the compounds used in the present method collected in accordance with the above-described procedure are listed in Table I.

Schisto B 1 = Schisto B 1 (Schistosoma mansoni, UniProt P25792); assay: Cysteine protease inhibition, progress curve method, schistosoma B 1; format: biochemical
Procedure: as §1, §2, §3, §4, §5, §6, §7

Schisto B 2 = Schisto B 2 (Schistosoma mansoni, UniProt Q95PM1); assay: Cysteine protease inhibition, progress curve method, schistosoma B 2; format: biochemical; details: 10 uM Cbz-Phe-Arg-AMC, 100 mM Na acetate pH 5.5, 5 mM cysteine
Procedure: as §1, §2, §3, §4, §5, §6, §7

Falcipain 2 = Falcipain 2 (Plasmodium falciparum, UniProt Q8I6U4); assay: Cysteine protease inhibition, progress curve method, falcipain; format: biochemical; details: 10 uM Cbz-Leu-Arg-AMC, 100 mM Na acetate pH 5.5, 5 mM cysteine
Outline: (§8)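 Kinetic constants from AMC-release progress curves over 20–30 min at ambient temperature in 100 mM Na acetate pH 5.5, 5 mM cysteine, 2% DMSO; enzyme added last to inhibitor plus substrate. Substrates: 10 uM Cbz-Phe-Arg-AMC (Leishmania, Schistosoma), 10 uM Cbz-Leu-Arg-AMC (falcipain), 4 uM Ac-Lys-Glu-Lys-Leu-Arg-AMC (cruzain). Ki,app from linear curves; time-dependent inhibition as kobs/[I].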

Cruzain = Cruzain (Trypanosoma cruzi, UniProt P25779); assay: Cysteine protease inhibition, progress curve method, cruzain; format: biochemical; details: 4 uM Ac-Lys-Glu-Lys-Leu-Arg-AMC, 100 mM Na acetate pH 5.5, 5 mM cysteine; read-out: Cruzain Ki
Outline: as §8

Rhodazain = Rhodazain (Trypanosoma brucei rhodesiense, UniProt Q95PM0); assay: Cysteine protease inhibition, progress curve method, rhodazain; format: biochemical, Trypanosoma brucei rhodesiensi; details: Rhodazain Ki (nM), 10 uM Cbz-Leu-Arg-AMC, 100 mM Na acetate pH 5.5, 5 mM cysteine
[1] = 10 uM Cbz-Phe-Arg-AMC, 100 mM Na acetate pH 5.5, 5 mM cysteine, read-out: Schisto B 1 Ki

Sequence of Schisto B 2 (Q95PM1 entry or part of it): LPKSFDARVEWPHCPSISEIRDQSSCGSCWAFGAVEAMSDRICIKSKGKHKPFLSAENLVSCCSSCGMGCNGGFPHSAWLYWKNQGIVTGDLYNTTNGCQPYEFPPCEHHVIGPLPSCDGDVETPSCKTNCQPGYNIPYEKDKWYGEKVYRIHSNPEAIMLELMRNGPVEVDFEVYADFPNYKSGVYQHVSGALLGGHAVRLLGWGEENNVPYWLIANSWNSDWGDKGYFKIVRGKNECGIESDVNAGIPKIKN
Sequence of Cruzain (P25779 123-337): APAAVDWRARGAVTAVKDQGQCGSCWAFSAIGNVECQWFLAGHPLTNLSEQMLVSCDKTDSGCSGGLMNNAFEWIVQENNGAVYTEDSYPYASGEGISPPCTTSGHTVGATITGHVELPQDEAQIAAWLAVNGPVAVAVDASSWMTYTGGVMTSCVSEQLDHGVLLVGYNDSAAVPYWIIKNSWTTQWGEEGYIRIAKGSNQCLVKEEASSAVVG
Sequence of Rhodazain (Q95PM0 entry or part of it): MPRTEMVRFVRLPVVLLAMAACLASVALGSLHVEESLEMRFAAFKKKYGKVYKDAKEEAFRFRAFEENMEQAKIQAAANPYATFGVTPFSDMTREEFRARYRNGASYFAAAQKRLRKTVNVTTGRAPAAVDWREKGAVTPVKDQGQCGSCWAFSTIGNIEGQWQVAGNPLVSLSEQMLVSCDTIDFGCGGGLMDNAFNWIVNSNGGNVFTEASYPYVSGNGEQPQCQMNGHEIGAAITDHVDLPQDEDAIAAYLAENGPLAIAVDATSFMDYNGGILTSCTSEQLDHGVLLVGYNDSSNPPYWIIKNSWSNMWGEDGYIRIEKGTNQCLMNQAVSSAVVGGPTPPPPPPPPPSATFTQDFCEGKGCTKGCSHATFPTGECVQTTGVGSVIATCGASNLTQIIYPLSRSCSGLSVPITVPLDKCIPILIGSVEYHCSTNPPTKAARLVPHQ
Sequence of Schisto B 1 (P25792 89-340): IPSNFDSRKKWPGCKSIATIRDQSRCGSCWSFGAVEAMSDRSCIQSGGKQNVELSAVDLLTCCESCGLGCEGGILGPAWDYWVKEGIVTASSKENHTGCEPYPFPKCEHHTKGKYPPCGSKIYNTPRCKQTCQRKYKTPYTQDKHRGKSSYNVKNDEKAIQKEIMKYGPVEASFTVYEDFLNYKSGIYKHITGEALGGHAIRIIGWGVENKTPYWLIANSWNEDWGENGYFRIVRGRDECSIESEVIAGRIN
Sequence of Falcipain 2 (Q8I6U4 244-484): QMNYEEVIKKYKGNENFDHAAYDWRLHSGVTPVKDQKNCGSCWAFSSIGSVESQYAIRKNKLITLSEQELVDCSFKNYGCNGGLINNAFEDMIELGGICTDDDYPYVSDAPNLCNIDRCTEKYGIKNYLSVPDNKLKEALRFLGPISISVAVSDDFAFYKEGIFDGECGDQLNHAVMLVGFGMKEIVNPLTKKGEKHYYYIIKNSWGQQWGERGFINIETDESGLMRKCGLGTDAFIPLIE

Structure (SMILES) | Ki (Leishmania B) [nM] | Ki (Schisto B 1; [1]) [nM] | Ki (Schisto B 2) [nM] | Ki (Falcipain 2) [nM] | Ki (Cruzain) [nM] | Ki (Rhodazain) [nM] | Ki (Schisto B 1) [nM]
COc1ccc2oc(C(=O)N[C@@H](CC(C)C)C(=O)N[C@H]3CCCN(S(=O)(=O)c4ccc(Cl)cc4)CC3=O)cc2c1 [Example 132, 5-Methoxy-benzofuran-2-carboxylic acid {(S)-1-[1-(4-chloro-benzenesulfonyl)-3-oxo-azepan-4-ylcarbamoyl]-3-methyl-butyl}-amide] | 8.1 | 150 | 880 | – | – | – | –
COc1ccc(C(=O)N[C@@H](CC(C)C)C(=O)N[C@@H]2CCCN(S(=O)(=O)c3ccc(F)cc3)CC2=O)cc1OC [Example 110, N—{(S)-1-[1-(4-Fluoro-benzenesulfonyl)-3-oxo-azepan-4-ylcarbamoyl}-3-methyl-butyl}-3,4-dimethoxy-benzamide] | – | 38 | 280 | 96 | 7.4 | – | –
O=C(N[C@@H](Cc1ccc2ccccc2c1)C(=O)NC1CCCN(S(=O)(=O)c2ccccn2)CC1=O)c1cccc2ccccc12 (stereo partly drawn) [Example 175, Naphthalene-1-carboxylic acid {(S)-2-naphthalen-2-yl-1-[3-oxo-1-(pyridine-2-sulfonyl)-azepan-4-ylcarbamoyl)-ethyl]-amide] | 1.7 | 37 | 21 | – | – | 5.6 | –
Cc1c(C(=O)N[C@@H](CC(C)C)C(=O)NC2CCCN(Cc3ccc4ccccc4n3)CC2=O)oc2ccccc12 (stereo partly drawn) [Example 213, 3-Methyl-benzofuran-2-carboxylic acid [(S)-3-methyl-1-[3-oxo-1-quinolin-2-ylmethyl-azepan-4-ylcarbamoyl]-butyl}-amide] | 0.77 | – | – | – | 7.1 | – | –
COc1ccc2oc(C(=O)N[C@@H](CC(C)C)C(=O)N[C@H]3CCCN(S(=O)(=O)c4cccc(Cl)c4)CC3=O)cc2c1 [Example 89, 5-Methoxy-benzofuran-2-carboxylic acid-{(S)-1-[1-(3-chloro-benzenesulfonyl)-3-oxo-azepan-4-ylcarbamoyl]-3-methyl-butyl}-amide] | 24 | 34 | 130 | – | 11 | – | –
CC(C)C[C@H](NC(=O)c1cc2ccccc2s1)C(=O)N[C@H]1CCCN(S(=O)(=O)c2ccc(Cl)cc2)CC1=O [Example 135, Benzo[b]thiophene-2-carboxylic acid-{(S)-1-[1-(4-chloro-benzenesulfonyl)-3-oxo-azepan-4-ylcarbamoyl]-3-methyl-butyl}-amide] | 8 | 75 | 270 | – | – | – | –
CC(C)C[C@H](NC(=O)c1cc2ccccc2s1)C(=O)N[C@@H]1CCCN(S(=O)(=O)c2ccc(F)cc2)CC1=O [Example 108, Benzo[b]thiophene-2-carboxylic acid-{(S)-1-[1-(4-fluoro-benzenesulfonyl)-3-oxo-azepan-4-ylcarbamoyl]-3-methyl-butyl}-amide] | 9.4 | 34 | 110 | – | 20 | – | –
O=C(N[C@@H](Cc1ccc2ccccc2c1)C(=O)NC1CCCN(S(=O)(=O)c2ccccn2)CC1=O)c1cccc2cccnc12 (stereo partly drawn) [Example 174, Quinoline-8-carboxylic acid {(S)-2-naphthalen-2-yl-1-[3-oxo-1-(pyridine-2-sulfonyl)-azepan-4-ylcarbamoyl)-ethyl]-amide] | 1.7 | 27 | 8.3 | – | – | 4.7 | –
COc1ccc2oc(C(=O)N[C@@H](CC(C)C)C(=O)N[C@H]3CCCN(S(=O)(=O)c4cccs4)CC3=O)cc2c1 [Example 143, 5-Methoxy-benzofuran-2-carboxylic acid-{(S)-3-methyl-1-[3-oxo-1-(thiophene-2-sulfonyl)-azepan-4-ylcarbamoyl]-butyl}-amide] | – | 55 | 110 | – | 5.7 | 6.5 | –
O=C(N[C@@H](Cc1ccccc1)C(=O)NC1CCCN(S(=O)(=O)c2ccccn2)CC1=O)c1cccc2cccnc12 (single isomer, unassigned) [Example 189] | 3.9 | – | – | – | – | 3.1 | –
O=C(NC(Cc1ccc2ccccc2c1)C(=O)NC1CCCN(S(=O)(=O)c2ccccn2)CC1=O)c1cccc2cccnc12 [Example 187, Quinoline-8-carboxylic acid {(S)-2-naphthalen-2-yl-1-[3-oxo-1-(pyridine-2-sulfonyl)-azepan-4-ylcarbamoyl]-ethyl}-amide] | 2.1 | 8.4 | – | – | 6.8 | 2.5 | –
O=C(NC(Cc1ccccc1)C(=O)N[C@@H]1CCCN(S(=O)(=O)c2ccccn2)CC1=O)c1cccc2ccccc12 (single isomer, unassigned) [Example 190] | – | 38 | 68 | – | 8.4 | 2.5 | –
CC(C)C[C@H](NC(=O)c1cc2ccccc2o1)C(=O)NC1CCCN(Cc2ccc3ccccc3n2)CC1=O (stereo partly drawn) [Example 212, Benzofuran-2-carboxylic acid [(S)-3-methyl-1-[3-oxo-1-quinolin-2-ylmethyl-azepan-4-ylcarbamoyl]-butyl}-amide] | 1.7 | – | – | – | 7.7 | – | –
CC(C)C[C@H](NC(=O)c1cc2ccccc2o1)C(=O)N[C@H]1CCCN(S(=O)(=O)c2ccc(Cl)cc2)CC1=O [Example 131, Benzofuran-2-carboxylic acid {(S)-1-[1-(4-chloro-benzenesulfonyl)-3-oxo-azepan-4-ylcarbamoyl]-3-methyl-butyl}-amide] | 11 | 75 | 300 | – | – | – | –
Cc1c(C(=O)N[C@@H](CC(C)C)C(=O)N[C@H]2CCCN(S(=O)(=O)c3cccc(Cl)c3)CC2=O)oc2ccccc12 [Example 90, 3-Methyl-benzofuran-2-carboxylic acid-{(S)-1-[1-(3-chloro-benzenesulfonyl)-3-oxo-azepan-4-ylcarbamoyl]-3-methyl-butyl}-amide] | 3.3 | 48 | 71 | – | – | – | –
CC(C)CC(NC(=O)c1cc2ccccc2s1)C(=O)NC1CCCN(S(=O)(=O)c2ccccn2)CC1=O (stereo in doubt) [Example 87, Benzo[b]thiophene-2-carboxylic acid {(S)-3-methyl-1-[3-oxo-1-(pyridine-2-sulfonyl)-azepan-4-ylcarbamoyl]-butyl}amide] | – | 44 | 260 | 42 | 3 | 1.9 | –
O=C(N[C@@H](Cc1ccc2ccccc2c1)C(=O)NC1CCCN(S(=O)(=O)c2ccccn2)CC1=O)c1cc2ccccc2o1 (stereo partly drawn) [Example 159, Benzofuran-2-carboxylic acid {(S)-2-naphthalen-2-yl-1-[3-oxo-1-(pyridine-2-sulfonyl)-azepan-4-ylcarbamoyl)-ethyl]-amide] | 1.4 | – | – | – | – | 3.4 | 47
CC(C)C[C@H](NC(=O)c1cc2ccccc2s1)C(=O)NC1CCCN(Cc2ccc3ccccc3n2)CC1=O (stereo partly drawn) [Example 214, Benzo[b]thiophene-2-carboxylic acid {(S)-3-methyl-1-[3-oxo-1-quinolin-2-ylmethyl-azepan-4-ylcarbamoyl]-butyl}-amide] | 1 | – | – | – | 7.4 | – | –
